From patent US8163724B2, “Glucocorticosteroids, processes for their preparation, pharmaceutical compositions containing them and their use in therapy” (AstraZeneca AB, priority 2007, dated 2012)

These compounds were tested against T1, recombinant human GR (Homo sapiens, UniProt P04150) (assay: Human Glucocorticoid Receptor (GR) Assay (fluorescence polarization, Panvera/Invitrogen kit)). Settings: fluorescence polarization; GS Red tracer; 2 hours at room temperature; 100% control 10 μM Dexamethasone; read-out: Inhibition of GR binding, IC50.
T1 construct: purchased Panvera/Invitrogen P2812 (kit P2893)
T1 sequence (P04150 1-777): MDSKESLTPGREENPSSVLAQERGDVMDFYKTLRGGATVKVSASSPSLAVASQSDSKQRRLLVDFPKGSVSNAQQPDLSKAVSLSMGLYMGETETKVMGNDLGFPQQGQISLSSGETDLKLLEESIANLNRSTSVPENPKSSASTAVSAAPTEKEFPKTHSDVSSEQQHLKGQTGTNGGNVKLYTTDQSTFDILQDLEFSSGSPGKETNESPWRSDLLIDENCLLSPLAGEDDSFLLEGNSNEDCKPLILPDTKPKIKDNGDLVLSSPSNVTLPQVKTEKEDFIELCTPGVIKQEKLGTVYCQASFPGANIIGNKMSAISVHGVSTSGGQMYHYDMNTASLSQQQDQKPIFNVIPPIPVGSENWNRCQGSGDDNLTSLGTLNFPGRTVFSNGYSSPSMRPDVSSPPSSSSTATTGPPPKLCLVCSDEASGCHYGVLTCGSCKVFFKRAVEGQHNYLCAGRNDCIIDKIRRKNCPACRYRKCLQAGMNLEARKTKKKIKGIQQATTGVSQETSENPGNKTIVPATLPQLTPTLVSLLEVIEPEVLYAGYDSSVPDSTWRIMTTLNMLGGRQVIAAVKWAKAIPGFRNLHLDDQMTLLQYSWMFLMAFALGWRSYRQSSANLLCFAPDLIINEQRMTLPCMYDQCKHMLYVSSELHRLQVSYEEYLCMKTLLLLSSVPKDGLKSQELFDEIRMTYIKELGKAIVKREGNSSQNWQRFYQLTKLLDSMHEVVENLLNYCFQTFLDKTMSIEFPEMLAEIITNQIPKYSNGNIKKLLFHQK
Assay type: binding
In short: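 Fluorescence polarization competition with recombinant GR and GS Red fluorescent ligand plus stabilizing peptide and DTT in potassium phosphate/sodium molybdate/EDTA buffer with DMSO. Incubated 2 hours at room temperature in the dark; 0% control DMSO, 100% control 10 μM dexamethasone.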

| Compound | IC50 [nM] |
| --- | --- |
| Cn1cc(C(=O)O[C@]2(C(=O)SCC#N)CC[C@H]3[C@@H]4CCC5=Cc6c(cnn6-c6ccc(F)cc6)C[C@]5(C)[C@H]4[C@@H](O)C[C@@]32C)nn1 [Example 47, (1R,3aS,3bS,10aR,10bS,11S,12aS)-1-{[(Cyanomethyl)thio]carbonyl}-7-(4-fluoro-phenyl)-11-hydroxy-10a,12a-dimethyl-1,2,3,3a,3b,4,5,7,10,10a,10b,11,12,12a-tetradecahydrocyclopenta[5,6]naphtho[1,2-f]indazol-1-yl 1-methyl-1H-1,2,3-triazole-4-carboxylate] | 2.5 |
| C[C@]12Cc3cnn(-c4ccc(F)cc4)c3C=C1CC[C@H]1[C@@H]3CC[C@](OC(=O)c4cocn4)(C(=O)SCC#N)[C@@]3(C)C[C@H](O)[C@@]12F [Example 201, (1R,3aS,3bS,10aS,10bR,11S,12aS)-1-{[(Cyanomethyl)sulfanyl]-carbonyl}-10b-fluoro-7-(4-fluorophenyl)-11-hydroxy-10a,12a-dimethyl-1,2,3,3a,3b,4,5,7,10,10a,10b,11,12,12a-tetradecahydrocyclopenta[5,6]naphtho[1,2-f]indazol-1-yl 1,3-oxazole-4-carboxylate] | 5.3 |
| C[C@]12Cc3cnn(-c4cccc(Br)c4)c3C=C1CC[C@@H]1[C@@H]2[C@@H](O)C[C@@]2(C)[C@H]1CC[C@]2(OC(=O)c1ccco1)C(=O)SCF [Example 71, (1R,3aS,10aR,10bS,11S,12aS)-7-(3-Bromophenyl)-1-{[(fluoromethyl)thio]carbonyl}-11-hydroxy-10a,12a-dimethyl-1,2,3,3a,3b,4,5,7,10,10a,10b,11,12,12a-tetradecaphydrocyclopenta[5,6]naphtho[1,2-f]indazol-1-yl furan-2-carboxylate] | 13 |
| CSC(=O)[C@@]1(OC(=O)c2cocn2)CC[C@H]2[C@@H]3CCC4=Cc5c(cnn5-c5ccc(F)nc5)C[C@]4(C)[C@H]3[C@@H](O)C[C@@]21C [Example 161, (1R,3aS,3bS,10aR,10bS,11S,12aS)-7-(6-Fluoropyridin-3-yl)-11-hydroxy-10a,12a-dimethyl-1-[(methylsulfanyl)carbonyl]-1,2,3,3a,3b,4,5,7,10,10a,10b,11,12,12a-tetradecahydrocyclopenta[5,6]naphtho[1,2-f]indazol-1-yl 1,3-oxazole-4-carboxylate] | 1.3 |
| C[C@]12Cc3cnn(-c4ccc(F)c(CO)c4)c3C=C1CC[C@@H]1[C@@H]2[C@@H](O)C[C@@]2(C)[C@H]1CC[C@]2(OC(=O)C1CC1)C(=O)OCC#N [Example 145, Cyanomethyl(1R,3aS,3bS,10aR,10bS,11S,12aS)-1-[(cyclopropylcarbonyl)oxy]-7-[4-fluoro-3-(hydroxymethyl)phenyl]-11-hydroxy-10a,12a-dimethyl-1,2,3,3a,3b,4,5,7,10,10a,10b,11,12,12a-tetradecahydrocyclopenta[5,6]naphtho[1,2-f]indazole-1-carboxylate] | 3.2 |
| C[C@]12Cc3cnn(-c4ccc(F)cc4)c3C=C1CC[C@H]1[C@@H]3CC[C@](OC(=O)C4CC4)(C(=O)SCC#N)[C@@]3(C)C[C@H](O)[C@@]12F [Example 195, (1R,3aS,3bS,10aS,10bR,11S,12aS)-1-{[(Cyanomethyl)sulfanyl]carbonyl}-10b-fluoro-7-(4-fluorophenyl)-11-hydroxy-10a,12a-dimethyl-1,2,3,3a,3b,4,5,7,10,10a,10b,11,12,12a-tetradecahydrocyclopenta[5,6]naphtho[1,2]-indazol-1-yl cyclopropanecarboxylate] | 4.7 |
| CCC(=O)O[C@]1(C(=O)SCCOC(C)=O)CC[C@H]2[C@@H]3CCC4=Cc5c(cnn5-c5ccc(F)cc5)C[C@]4(C)[C@H]3[C@@H](O)C[C@@]21C [Example 95, (1R,3aS,3bS,10aR,10bS,11S,12aS)-1-({[2-(Acetyloxy)ethyl]sulfanyl}carbonyl)-7-(4-fluorophenyl)-11-hydroxy-10a,12a-dimethyl-1,2,3,3a,3b,4,5,7,10,10a,10b,11,12,12a-tetradecahydrocyclopenta[5,6]naphtho[1,2-f]indazol-1-yl propanoate] | 4.7 |
| COCc1cc(-n2ncc3c2C=C2CC[C@@H]4[C@H]([C@@H](O)C[C@@]5(C)[C@H]4CC[C@]5(OC(=O)c4ccco4)C(=O)SCC#N)[C@@]2(C)C3)ccc1F [Example 73, (1R,3aS,3bS,10aR,10bS,11S,12aS)-1-{[(Cyanomethyl)thio]carbonyl}-7-[4-fluoro-3-(methoxymethyl)phenyl]-11-hydroxy-10a,12a-dimethyl-1,2,3,3a,3b,4,5,7,10,10a,10b,11,12,12a-tetradecahydrocyclopenta[5,6]naphtho[1,2-f]indazol-1-yl furan-2-carboxylate] | 6.4 |
| CCC(=O)O[C@]1(C(=O)SCC(=O)N(C)C)CC[C@H]2[C@@H]3CCC4=Cc5c(cnn5-c5ccc(F)cc5)C[C@]4(C)[C@H]3[C@@H](O)C[C@@]21C [Example 22, (1R,3aS,3bS,10aR,10bS,11S,12aS)-1-({[2-(Dimethylamino)-2-oxoethyl]thio}carbonyl)-7-(4-fluorophenyl)-11-hydroxy-10a,12a-dimethyl-1,2,3,3a,3b,4,5,7,10,10a,10b,11,12,12a-tetradecahydrocyclopenta[5,6]naphtho[1,2-f]indazol-1-yl propanoate] | 3.9 |
| CC(=O)O[C@]1(C(=O)SCF)CC[C@H]2[C@@H]3CCC4=Cc5c(cnn5-c5ccc(F)cc5)C[C@]4(C)[C@H]3[C@@H](O)C[C@@]21C [Example 110, (1R,3aS,3bS,10aR,10bS,11S,12aS)-1-{[(Fluoromethyl)sulfanyl]carbonyl}-7-(4-fluorophenyl)-11-hydroxy-10a,12a-dimethyl-1,2,3,3a,3b,4,5,7,10,10a,10b,11,12,12a-tetradecahydrocyclopenta[5,6]naphtho[1,2-f]indazol-1-yl acetate] | 6.7 |
| C[C@]12Cc3cnn(-c4ccc(F)nc4)c3C=C1CC[C@H]1[C@@H]3CC[C@](OC(=O)c4cocn4)(C(=O)SCC#N)[C@@]3(C)C[C@H](O)[C@@]12F [Example 209, (1R,3aS,3bS,10aS,1.0bR,11S,12aS)-1-{[(Cyanomethyl)sulfanyl]carbonyl}-10b-fluoro-7-(6-fluoropyridin-3-yl)-11-hydroxy-10a,12a-dimethyl-1,2,3,3a,3b,4,5,7,10,10a,10b,11,12,12a-tetradecahydrocyclopenta[5,6]naphtho[1,2-f]indazol-1-yl 1,3-oxazole-4-carboxylate] | 3.6 |
| C[C@]12Cc3cnn(-c4ccc(F)nc4)c3C=C1CC[C@@H]1[C@@H]2[C@@H](O)C[C@@]2(C)[C@H]1CC[C@]2(OC(=O)c1ccco1)C(=O)SCCO [Example 168, (1R,3aS,3bS,10aR,10bS,11S,12aS)-7-(6-Fluoropyridin-3-yl)-11-hydroxy-1-{[(2-hydroxyethyl)sulfanyl]carbonyl}-10a,12a-dimethyl-1,2,3,3a,3b,4,5,7,10,10a,10b,11,12,12a-tetradecahydrocyclopenta[5,6]naphtho[1,2-f]indazol-1-yl furan-2-carboxylate] | 5.3 |
| CC(C)CC(=O)O[C@]1(C(=O)SCC#N)CC[C@H]2[C@@H]3CCC4=Cc5c(cnn5-c5ccc(F)cc5)C[C@]4(C)[C@H]3[C@@H](O)C[C@@]21C [Example 112, (1R,3aS,3bS,10aR,10bS,11S,12aS)-1-{[(Cyanomethyl)sulfanyl]carbonyl}-7-(4-fluorophenyl)-11-hydroxy-10a,12a-dimethyl-1,2,3,3a,3b,4,5,7,10,10a,10b,11,12,12a-tetradecahydrocyclopenta[5,6]naphtho[1,2-f]indazol-1-yl 3-methylbutanoate] | 18 |
| C[C@]12Cc3cnn(-c4ccc(S(C)(=O)=O)cc4)c3C=C1CC[C@@H]1[C@@H]2[C@@H](O)C[C@@]2(C)[C@H]1CC[C@]2(OC(=O)c1ccco1)C(=O)SCC#N [Example 106, (1R,3aS,3bS,10aR,10bS,11S,12aS)-1-{[(Cyanomethyl)sulfanyl]carbonyl}-11-hydroxy-10a,12a-dimethyl-7-[4-(methylsulfonyl)phenyl]-1,2,3,3a,3b,4,5,7,10,10a,10b,11,12,12a-tetradecahydrocyclopenta[5,6]naphtho[1,2-f]indazol-1-yl furan-2-carboxylate] | 160 |
| CCC(=O)O[C@]1(C(=O)SCF)CC[C@H]2[C@@H]3C[C@H](C)C4=Cc5c(cnn5-c5ccc(F)cc5)C[C@]4(C)[C@H]3[C@@H](O)C[C@@]21C [Example 214, (1R,3aS,3bS,5S,10aR,10bS,11S,12aS)-1-{[(Fluoromethyl)sulfanyl]carbonyl}-7-(4-fluorophenyl)-11-hydroxy-5,10a,12a-trimethyl-1,2,3,3a,3b,4,5,7,10,10a,10b,11,12,12a-tetradecahydrocyclopenta[5,6]naphtho[1,2-f]indazol-1-yl propanoate] | 49 |
